According to patent US20230201290A1, “TGF-BETA INHIBITION, AGENTS AND COMPOSITION THEREFOR” (GMP BIOTECHNOLOGY LIMITED, priority 2020, published 2023):
Converted amounts (≈) assume the structure as drawn. “And” between values parts separate entries of the source, which are not always exact repeats. Equal entries are not always repeated. Where two headings read alike, the source gives them in different places.

Assays:
[1] = healthy subjects; cited from earlier work
[2] = tested on: SARS-COV-2 USA_WA1/2020; settings: for SI=CC50/EC50: SARS-CoV-2; for SI (CC50/EC50): SARS-CoV-2, Vero 76 cells; for EC50: 50% effective antiviral concentration: SARS-CoV-2 USA_WA1/2020, Vero 76, CPE neutral red, day 5; for Antiviral activity against SARS-CoV-2 (words): Vero 76
[3] = tested on: Vero 76 cells; settings: for CC50: 50% cytotoxic concentration of compound without virus added: run alongside SARS-CoV-2 test
[4] = tested on: vivax malaria; settings: cited from earlier work; for relapse rate within a month: 1975 comparison with chloroquine
[5] = tested on: falciparum malaria; settings: cited from earlier work; for recrudescence in a month: 1975, 3-day regimens
[6] = tested on: SARS-CoV-2; settings: VeroE6, 2-day incubation; cited from earlier work
[7] = 500 mg orally, Child B cirrhosis; cited from earlier work
[8] = cited from earlier work
[9] = tested on: SARS-CoV-2; settings: Vero E6, MOI 0.01, 24 h post-infection; cited from earlier work
[10] = tested on: cerebral malaria; settings: cited from earlier work
[11] = tested on: SARS-COV-2 USA_WA1/2020; assay: microbe, parasite or virus in culture
[12] = in vitro; settings: African green monkey
[13] = tested on: TGF-β mRNA; settings: 100 mg/kg ip daily for 20 days; P<0.01; cited from earlier work
[14] = tested on: SARS-CoV (Urbani strain)
[15] = tested on: C8161 human melanoma; assay: Orthotopic C8161 human melanoma model
[16] = tested on: SARS-CoV-2 virus; settings: higher values with higher multiplicity of infection; read-out: EC50 values for SARS-CoV-2 virus in the literature; cited from earlier work
[17] = 527 cases of falciparum malaria

## Clc1ccc2c(N3CCN(CCCN4CCN(c5ccnc6cc(Cl)ccc56)CC4)CC3)ccnc2c1 [piperaquine]
[1]
  slope of plasma concentration vs placebo-adjusted ΔQTcF: 0.047 ms per ng ml-1

## GGTAGGTAAAAACCTAATAT [5TERM (1-20)] (phosphorothioate backbone, further chemistry not given here)
[2]
  SI=CC50/EC50: >140
  SI (CC50/EC50): >140
  EC50: 50% effective antiviral concentration: 7.1 µg/mL
  Antiviral activity against SARS-CoV-2 (words): High antiviral activity
[3]
  CC50: > 1000 µg/mL
  CC50: 50% cytotoxic concentration of compound without virus added: >1000 µg/mL

## CTCCCTCATGGTGGCAGTTGA (chemistry not given here) [RSV, reference compound]
[2]
  SI=CC50/EC50: >1.6
  SI (CC50/EC50): >1.6
  EC50: 50% effective antiviral concentration: 620.0 µg/mL and 620 µg/mL
  Antiviral activity against SARS-CoV-2 (words): did not demonstrate any suppression
[3]
  CC50: > 1000 µg/mL

## CCN(CC)CCCC(C)Nc1ccnc2cc(Cl)ccc12 (centres unmarked) [chloroquine]
[4]
  relapse rate within a month: no cases of relapse
[5]
  recrudescence in a month: 50%

## AGCCCTGTATACGAC [FS (13.458-13.274)MOE] (2'-MOE modified, pattern not given here)
[2]
  SI=CC50/EC50: >40
  EC50: 50% effective antiviral concentration: 25 µg/mL
[3]
  CC50: 50% cytotoxic concentration of compound without virus added: >1000 µg/mL

## C[C@@H]1CC[C@H]2[C@@H](C)C(=O)O[C@@H]3O[C@@]4(C)CC[C@@H]1[C@]32OO4 [Artemisinin]
[6]
  anti-SARS-CoV-2 activity by immunostaining for spike protein: confirmed
[2]
  Antiviral activity against SARS-CoV-2 (words): suppressed SARS-CoV-2 replication
[2]; listed as artemisinin
  Antiviral activity against SARS-CoV-2 (words): High antiviral activity
[7]
  elimination half-life, log-linear regression: 4 (±1.3) h
  elimination half-life, non-linear regression, one-compartment model: 2.4 ± 0.9 h
  mean (±SD) area under the concentration time curve: 2365 (±1761) h ng/ml
  mean (±SD) clearance: 382 (±303) L/h
[8]; 500 mg after food
  AUC: 2,092±1,441 ng×ml^−1×h
  time at which half of the terminal value was reached: 0.97 ± 0.68 h
[8]; 500 mg capsules after food, six healthy subjects
  maximum concentration of drug in serum (Cmax): 443 ± 224 ng/mL
[8]; 1×250, 2×250, 4×250 mg capsules, eight healthy subjects
  oral plasma clearance: about 400 L h-1
[8]; population PK, 15 subjects, 160 and 500 mg
  mean oral clearance: 417 L/h
[8]; population PK, 15 subjects
  terminal elimination half-life: 1.93 h
  volume of distribution: 1210 L
[8]; semiphysiological autoinduction model, saliva
  mean induction time of own metabolism: 1.9 h
[9]
  anti-SARS-CoV-2 activity by RTPCR method: confirmed
[10]; 141 patients
  mortality rate: 7.1%
  patients cured: 92.9%
[10]; across all sites
  average defervescence time: 34.1 to 56.7 h
  average parasite clearance time: 33.3 to 64.5 h
  average time taken to regain consciousness: 21.5 to 30.8 h
[10]; nasogastric gavage, 36 patients
  cure rate: 91.7%
[11]; Severe acute respiratory syndrome coronavirus 2, Vero 76, 120 h, read-out: EC50 (50% effective antiviral concentration)
  EC50: 0.45 µg/mL
[11]; Severe acute respiratory syndrome coronavirus 2, Vero 76, 120 h, read-out: EC50: 50% effective antiviral concentration
  EC50: 0.45 µg/mL
[11]; Severe acute respiratory syndrome coronavirus 2, Vero 76, read-out: EC50 (value in brackets)
  EC50: 1.59 µM
[4]; 1511 cases of vivax malaria
  average asexual parasite clearance time: 30 to 40 h
  average defervescence time: 20 to 30 h
[4]; 1975: artemisinin tablets total 3 g, chloroquine total 1.5 g base
  parasite clearance time: 39.6 ± 13.5 h
[4]
  relapse rate within a month: 21.4%
[12]
  CC50: 61 µg/mL (≈ 216 µM)
[5]; 143 cases, 3-day regimen oil, oil suspension or water suspension
  cure of chloroquine-resistant (RI-RIII) cases: all patients were cured
[5]; [17]
  Fever clearance time: 30 to 40 h
  asexual parasite clearance time: 30 to 50 h
[5]; 1975, 3-day regimens: artemisinin tablets 2.5 g, chloroquine 1.5 g base
  average asexual parasite clearance time: 37 ± 17.8 h
[5]
  recrudescence in a month: All the cases
[5]; group A: 500 mg daily for 5 days
  average parasite clearance time: 34 ± 14 h
[5]; group B: 100/100/250/250/500 mg escalating
  average parasite clearance time: 50 ± 23 h
[5]; single 500 mg oral dose, 11 patients
  mean parasite clearance time: 36 h
[5]; tablets
  recrudescence rate within a month: 85%
[13]
  TGF-β mRNA levels within the tumor: significantly decreased

## AGCCCTGTATACGAC [FS (13,458-13,472)] (antisense AGCCCTGTAGACGAC; phosphorothioate backbone, further chemistry not given here)
[2]
  SI=CC50/EC50: 53
  SI (CC50/EC50): 53
  EC50: 50% effective antiviral concentration: 5.2 µg/mL
  Antiviral activity against SARS-CoV-2 (words): High antiviral activity
[3]; SARS-CoV-2 test
  Cytotoxicity: Cytotoxicity was observed
[3]
  CC50: 50% cytotoxic concentration of compound without virus added: 430 µg/mL

## GTTCGTTTAGAGAACAGATC (phosphorothioate backbone, 5-methyl C, further chemistry not given here) [TRS1 (53-72)]
[2]
  SI=CC50/EC50: 95
  SI (CC50/EC50): 95
  EC50: 50% effective antiviral concentration: 7.6 µg/mL
  Antiviral activity against SARS-CoV-2 (words): High antiviral activity
[3]; SARS-CoV-2 test
  Cytotoxicity: Cytotoxicity was observed
[3]
  CC50: 50% cytotoxic concentration of compound without virus added: 720 µg/mL

## GGTAGGTAAAAACCTAATAT [5TERM (1-20) MOE] (2'-MOE modified, pattern not given here)
[14]
  SI (CC50/EC50): >2.6
[2]
  SI=CC50/EC50: 120
  SI (CC50/EC50): 120
  EC50: 50% effective antiviral concentration: 4.9 µg/mL
  Antiviral activity against SARS-CoV-2 (words): High antiviral activity
[3]
  Cytotoxicity: Cytotoxicity was observed
  CC50: 50% cytotoxic concentration of compound without virus added: 610 µg/mL
[3]; SARS-CoV-2 test
  Cytotoxicity: Cytotoxicity was observed

## CN(C)/N=N/c1[nH]cnc1C(N)=O [DTIC, dacarbazine]
[15]; group 3: 1 mg/kg ip four times/week
  Tumor growth suppressed versus control group 1 on day 42: −2%
[15]; group 4: 10 mg/kg ip four times/week
  Tumor growth suppressed versus control group 1 on day 42: 78%

## CCN(CCO)CCCC(C)Nc1ccnc2cc(Cl)ccc12 (centres unmarked) [hydroxychloroquine]
[16]
  EC50: 0.72 to 17.3 µM

## CATTGTAGATGTCAAAAGCC (phosphorothioate backbone, further chemistry not given here) [FS-2a (13539-13558)]
[2]
  SI=CC50/EC50: >59
  SI (CC50/EC50): >59
  EC50: 50% effective antiviral concentration: 17 µg/mL
  Antiviral activity against SARS-CoV-2 (words): High antiviral activity
[3]
  CC50: > 1000 µg/mL
  CC50: 50% cytotoxic concentration of compound without virus added: >1000 µg/mL

## CGTTTAGAGAACAGATCTAC [TRS2-2 53-72 MOE] (2'-MOE modified, pattern not given here)
[2]
  SI=CC50/EC50: >16
  SI (CC50/EC50): >16
  EC50: 50% effective antiviral concentration: 62 µg/mL
[3]
  CC50: > 1000 µg/mL
  CC50: 50% cytotoxic concentration of compound without virus added: >1000 µg/mL

## CGTTTAGAGAACAGATCTAC [TRS2-2 53-72] (phosphorothioate backbone, further chemistry not given here)
[2]
  SI=CC50/EC50: >530
  SI (CC50/EC50): >530
  EC50: 50% effective antiviral concentration: 1.9 µg/mL
  Antiviral activity against SARS-CoV-2 (words): High antiviral activity
[3]
  CC50: > 1000 µg/mL
  CC50: 50% cytotoxic concentration of compound without virus added: >1000 µg/mL

## TAAAGTTCGTTTAGAGAACAG (phosphorothioate backbone, further chemistry not given here) [TRS2 (56-76)]
[14]
  SI (CC50/EC50): >2.9
[2]
  SI=CC50/EC50: >14
  SI (CC50/EC50): >14
  EC50: 50% effective antiviral concentration: 73 µg/mL
[3]
  CC50: > 1000 µg/mL
  Cytotoxicity: Cytotoxicity was observed
  CC50: 50% cytotoxic concentration of compound without virus added: >1000 µg/mL
